Assay results taken from ChEMBL document CHEMBL5543173, “Discovery of a New Anti-Inflammatory Agent from Anemoside B4 Derivatives and Its Therapeutic Effect on Colitis by Targeting Pyruvate Carboxylase” (J Med Chem, 2024).
Active and inactive are the calls of the source. No cut-off for these calls is given here.

Key:
THP-1 [1] = experiment: Anti-inflammatory activity in LPS-treated human THP-1 cells assessed as decrease in phosphorylated I-kappaB-alpha level at 10 uM pretreated for 1 hr followed by LPS treatment for 6 hrs by Western blot analysis; type: functional, cell-based; conditions: time 7.0 hrs
THP-1 [2] = experiment: Anti-inflammatory activity in human THP-1 cells assessed as decrease in LPS-induced NLRP3 level at 1 to 10 uM pretreated for 1 hr followed by LPS/ATP treatment for 6 hrs by Western blot analysis; type: functional, cell-based; conditions: dose 1-10 µM, time 7.0 hrs
Mus musculus [3] = experiment: Anti-colitis activity in ICR mouse model of DSS-induced colitis assessed as decrease in DAI score at 15 to 60 mg/kg, IG treated for 9 days consecutively; type: functional, organism-based; conditions: dose 15-60 mg/kg, time 9.0 day
Mus musculus [4] = experiment: Anti-colitis activity in ICR mouse model assessed as reversal of DSS-induced colon shortening administered intragastrically for 9 days consecutively; type: functional, organism-based; conditions: route ig, time 9.0 day
Mus musculus [5] = experiment: Anti-colitis activity in ICR mouse model assessed as reversal of DSS-induced spleen weight at 15 to 60 mg/kg, IG treated for 9 days consecutively; type: functional, organism-based; conditions: dose 15-60 mg/kg, time 9.0 day
[6] = Toxicity in ICR mouse assessed as change in colon index at 300 mg/kg, IG measured for 9 days; type: organism-based; conditions: in vivo, po, 216 h, time 9 day
[7] = Toxicity in ICR mouse assessed as change in spleen index at 300 mg/kg, IG measured for 9 days; type: organism-based; conditions: in vivo, po, 216 h, time 9 day
[8] = Cmax in ICR mouse at 15 mg/kg, IG measured for 12 hrs by LC-MS/MS analysis; type: ADME, organism-based; conditions: in vivo, po
[9] = AUC (0 to t) in ICR mouse at 15 mg/kg, IG measured for 12 hrs by LC-MS/MS analysis; type: ADME, organism-based; conditions: in vivo, po
[10] = MRT (0 to t) in ICR mouse at 15 mg/kg, IG measured for 12 hrs by LC-MS/MS analysis; type: ADME, organism-based; conditions: in vivo, po
[11] = Volume of distribution in ICR mouse at 15 mg/kg, IG measured for 12 hrs by LC-MS/MS analysis; type: ADME, organism-based; conditions: in vivo, po
[12] = Cmax in colon of ICR mouse at 15 mg/kg, IG measured for 12 hrs by LC-MS/MS analysis; type: ADME, organism-based; conditions: po
[13] = AUC (0 to t) in colon of ICR mouse at 15 mg/kg, IG measured for 12 hrs by LC-MS/MS analysis; type: ADME, organism-based; conditions: po
[14] = MRT (0 to t) in colon of ICR mouse at 15 mg/kg, IG measured for 12 hrs by LC-MS/MS analysis; type: ADME, organism-based; conditions: po
[15] = Volume of distribution in colon of ICR mouse at 15 mg/kg, IG measured for 12 hrs by LC-MS/MS analysis; type: ADME, organism-based; conditions: in vivo, po
[16] = Tmax in Sprague-Dawley rat administered as hydroxypropyl-beta-cyclodextrin at 20 mg/kg, IG measured for 12 hrs by LC-MS/MS analysis; type: ADME, organism-based; conditions: in vivo, po
[17] = AUC (0 to t) in Sprague-Dawley rat administered as hydroxypropyl-beta-cyclodextrin at 20 mg/kg, IG measured for 12 hrs by LC-MS/MS analysis; type: ADME, organism-based; conditions: in vivo, po
[18] = MRT (0 to t) in […] administered as hydroxypropyl-beta-cyclodextrin at 20 mg/kg, IG measured for 12 hrs by LC-MS/MS analysis; type: ADME, organism-based; conditions: in vivo, po
THP-1 [19] = experiment: Anti-inflammatory activity in human THP-1 cells assessed as decrease in LPS-induced IL-6 level at 10 uM pretreated for 1 hr followed by LPS treatment for 24 hrs in presence of DADA by ELISA; type: functional, cell-based; conditions: time 25.0 hrs
Mus musculus [20] = experiment: Anti-colitis activity in ICR mouse model assessed as […] DSS-induced colon length at 15 to 60 mg/kg, IG treated for 8 days consecutively; type: functional, organism-based; conditions: dose 15-60 mg/kg, time 8.0 day
Mus musculus [21] = experiment: Anti-colitis activity in ICR mouse model assessed as decrease in DSS-induced DAI score at 60 mg/kg, IG treated for 8 days consecutively in presence of DADA; type: functional, organism-based; conditions: time 8.0 day
Mus musculus [22] = experiment: Anti-colitis activity in ICR mouse model assessed as […] DSS-induced colon length at 60 mg/kg, IG treated for 8 days consecutively in presence of DADA; type: functional, organism-based; conditions: time 8.0 day
Mus musculus [23] = experiment: Anti-colitis activity in ICR mouse model assessed as decrease in DSS-induced epithelial cell injury in colon tissue at 15 to 60 mg/kg, IG treated for 8 days consecutively by H and E staining based analysis; type: functional, organism-based; conditions: dose 15-60 mg/kg, time 8.0 day
Mus musculus [24] = experiment: Anti-colitis activity in ICR mouse model assessed as decrease in DSS-induced inflammatory cell infiltration in colon tissue at 60 mg/kg, IG treated for 8 days consecutively in presence of DADA by H and E staining based analysis; type: functional, organism-based; conditions: time 8.0 day
Mus musculus [25] = experiment: Anti-colitis activity in ICR mouse model assessed as decrease in DSS-induced epithelial cell injury in colon tissue at 60 mg/kg, IG treated for 8 days consecutively in presence of DADA by H and E staining based analysis; type: functional, organism-based; conditions: time 8.0 day
Mus musculus [26] = experiment: Anti-colitis activity in ICR mouse model assessed as decrease in DSS-induced apoptosis in colon tissue at 60 mg/kg, IG treated for 8 days consecutively in presence of DADA by H and E staining based analysis; type: functional, organism-based; conditions: time 8.0 day
Mus musculus [27] = experiment: Anti-colitis activity in ICR mouse model assessed as decrease in DSS-induced IL-6 level administered intragastrically treated for 8 days consecutively; type: functional, organism-based; conditions: dose 15-60 mg/kg, route ig, time 8.0 day
Mus musculus [28] = experiment: Anti-colitis activity in ICR mouse model assessed as decrease in DSS-induced pyruvate carboxylase level at 60 mg/kg, IG treated for 8 days consecutively; type: functional, organism-based; conditions: time 8.0 day
Mus musculus [29] = experiment: Anti-colitis activity in ICR mouse model assessed as increase in DSS-reduced pyruvate level at 60 mg/kg, IG treated for 8 days consecutively; type: functional, organism-based; conditions: time 8.0 day
Mus musculus [30] = experiment: Anti-colitis activity in ICR mouse model assessed as decrease in DSS-induced pyruvate carboxylase level at 60 mg/kg, IG treated for 8 days consecutively in presence of DADA; type: functional, organism-based; conditions: time 8.0 day
Mus musculus [31] = experiment: Anti-colitis activity in ICR mouse model assessed as increase in DSS-reduced pyruvate level at 60 mg/kg, IG treated for 8 days consecutively in presence of DADA; type: functional, organism-based; conditions: time 8.0 day
Mus musculus [32] = experiment: Anti-colitis activity in ICR mouse model assessed as decrease in DSS-induced I-kappaB-alpha degradation in colon tissue at 60 mg/kg, IG treated for 8 days consecutively by Western blot analysis; type: functional, organism-based; conditions: time 8.0 day
Mus musculus [33] = experiment: Anti-colitis activity in ICR mouse model assessed as decrease in DSS-induced P65 phosphorylation in colon tissue at 60 mg/kg, IG treated for 8 days consecutively by Western blot analysis; type: functional, organism-based; conditions: time 8.0 day
Mus musculus [34] = experiment: Anti-colitis activity in ICR mouse model assessed as decrease in DSS-induced I-kappaB-alpha degradation in colon tissue at 60 mg/kg, IG treated for 8 days consecutively in presence of DADA by Western blot analysis; type: functional, organism-based; conditions: time 8.0 day
Mus musculus [35] = experiment: Anti-colitis activity in ICR mouse model assessed as decrease in DSS-induced P65 phosphorylation in colon tissue at 60 mg/kg, IG treated for 8 days consecutively in presence of DADA by Western blot analysis; type: functional, organism-based; conditions: time 8.0 day
THP-1 [36] = experiment: cells; conditions: Homo sapiens, THP-1, 24 h
Description: Cytotoxicity against human THP-1 cells assessed as inhibition of cell viability incubated for 24 hrs by CCK8 assay

Cmax [8]: 40.4 ng/mL
AUCt [9]: 108.09 ng·h/mL
MRT last at 12 h [10]: 3.1 h
Vd [11]: 2867.15 L/kg
Cmax [12]: 1110 ng/mL
AUC(0-t) at 12 h [13]: 3210 ng·h/mL
MRT last at 12 h [14]: 3.32 h
Vd [15]: 97.34 L/kg
Tmax [16]: 0.5 h
AUCt [17]: 223.22 ng·h/mL
MRT last at 12 h [18]: 4.05 h
IC50 (THP-1 [36]): ≥ 80 µM
Compound: C=C(C)[C@@H]1CC[C@]2(C(=O)NCCCCCC(=O)OC)CC[C@]3(C)[C@H](CC[C@@H]4[C@@]5(C)CC[C@H](O[C@@H]6OC[C@H](O)[C@H](O)[C@H]6O[C@@H]6O[C@@H](C)[C@H](O)[C@@H](O)[C@H]6O)[C@@](C)(CO)[C@@H]5CC[C@]43C)[C@@H]12
Activity (THP-1 [1]): Active
Activity (THP-1 [2]): Active
Activity (Mus musculus [3]): Active
Activity (Mus musculus [4]): Dose-Dependent Effect
Activity (Mus musculus [5]): Active
Activity [6]: Non-Toxic
Activity [7]: Non-Toxic
Activity (THP-1 [19]): inactive
Activity (Mus musculus [20]): Active
Activity (Mus musculus [21]): inactive
Activity (Mus musculus [22]): inactive
Activity (Mus musculus [23]): Active
Activity (Mus musculus [24]): inactive
Activity (Mus musculus [25]): inactive
Activity (Mus musculus [26]): inactive
Activity (Mus musculus [27]): Dose-Dependent Effect
Activity (Mus musculus [28]): Active
Activity (Mus musculus [29]): Active
Activity (Mus musculus [30]): inactive
Activity (Mus musculus [31]): inactive
Activity (Mus musculus [32]): Active
Activity (Mus musculus [33]): Active
Activity (Mus musculus [34]): inactive
Activity (Mus musculus [35]): inactive
